Calls of active or inactive are those of the source. No cut-off for these calls is given here.
Legend:
Eca-109/VCR [1] = assay: Cytotoxicity against human Eca-109/VCR cells assessed as reduction in cell viability at 5.0 uM incubated for 48 hrs by CCK-8 assay relative to control; type: functional
Eca-109/VCR [2] = assay: Induction of apoptosis in human Eca-109/VCR cells assessed as late apoptotic cells at 2.5 uM incubated for 60 hrs in presence of vincristine by Annexin V-FITC/PI staining based flow cytometric analysis (reference value: 0.56%); type: functional
Eca-109/VCR [3] = assay: Induction of apoptosis in human Eca-109/VCR cells assessed as necrotic cells at 5 uM incubated for 60 hrs in presence of vincristine by Annexin V-FITC/PI staining based flow cytometric analysis (reference value: 0.10%); type: functional
Eca-109/VCR [4] = assay: Induction of apoptosis in human Eca-109/VCR cells assessed as necrotic cells at 2.5 uM incubated for 60 hrs by Annexin V-FITC/PI staining based flow cytometric analysis (reference value: 0.22%); type: functional
Eca-109/VCR [5] = assay: Induction of apoptosis in human Eca-109/VCR cells assessed as late apoptotic cells at 5 uM incubated for 60 hrs by Annexin V-FITC/PI staining based flow cytometric analysis (reference value: 0.70%); type: functional
Eca-109/VCR [6] = assay: Induction of apoptosis in human Eca-109/VCR cells assessed as late apoptotic cells at 2.5 uM incubated for 60 hrs by Annexin V-FITC/PI staining based flow cytometric analysis (reference value: 0.70%); type: functional
Eca-109/VCR [7] = assay: Induction of apoptosis in human Eca-109/VCR cells assessed as necrotic cells at 2.5 uM incubated for 60 hrs in presence of vincristine by Annexin V-FITC/PI staining based flow cytometric analysis (reference value: 0.10%); type: functional
Eca-109/VCR [8] = assay: Induction of apoptosis in human Eca-109/VCR cells assessed as viable cells at 2.5 uM incubated for 60 hrs in presence of vincristine by Annexin V-FITC/PI staining based flow cytometric analysis (reference value: 97.3%); type: functional; conditions: read-out: Activity
Eca-109/VCR [9] = assay: Induction of apoptosis in human Eca-109/VCR cells assessed as early apoptotic cells at 2.5 uM incubated for 60 hrs by Annexin V-FITC/PI staining based flow cytometric analysis (reference value: 1.66%); type: functional
Eca-109/VCR [10] = assay: Induction of apoptosis in human Eca-109/VCR cells assessed as early apoptotic cells at 5 uM incubated for 60 hrs by Annexin V-FITC/PI staining based flow cytometric analysis (reference value: 1.66%); type: functional
Eca-109/VCR [11] = assay: Induction of apoptosis in human Eca-109/VCR cells assessed as viable cells at 5 uM incubated for 60 hrs in presence of vincristine by Annexin V-FITC/PI staining based flow cytometric analysis (reference value: 97.3%); type: functional; conditions: read-out: Activity
Eca-109/VCR [12] = assay: Induction of apoptosis in human Eca-109/VCR cells assessed as late apoptotic cells at 5 uM incubated for 60 hrs in presence of vincristine by Annexin V-FITC/PI staining based flow cytometric analysis (reference value: 0.56%); type: functional
Eca-109/VCR [13] = assay: Induction of apoptosis in human Eca-109/VCR cells assessed as viable cells at 5 uM incubated for 60 hrs by Annexin V-FITC/PI staining based flow cytometric analysis (reference value: 97.4%); type: functional; conditions: read-out: Activity
Eca-109/VCR [14] = assay: Induction of apoptosis in human Eca-109/VCR cells assessed as necrotic cells at 5 uM incubated for 60 hrs by Annexin V-FITC/PI staining based flow cytometric analysis (reference value: 0.22%); type: functional
ECa-109 cell line = assay: Cytotoxicity against human Eca-109 cells incubated for 48 hrs by CCK-8 assay; type: functional, cell-based; conditions: ECa-109, 48 h
Eca-109/VCR [15] = assay: Reversal of multi-drug resistance in human Eca-109/VCR cells assessed as decrease in cloning formation at 0.5 to 2 uM incubated for 8 days by crystal violet staining based analysis; type: functional, cell-based; conditions: dose 0.5-2 µM, time 8.0 day
Eca-109/VCR [16] = assay: Cytotoxicity against human Eca-109/VCR cells assessed as reduction in cell viability incubated for 48 hrs by CCK-8 assay; type: functional, cell-based
Eca-109/VCR [17] = assay: Induction of apoptosis in human Eca-109/VCR cells assessed as viable cells at 2.5 uM incubated for 60 hrs by Annexin V-FITC/PI staining based flow cytometric analysis (reference value: 97.4%); type: functional; conditions: read-out: Activity
[18] = Reversal fold, ratio of doxorubicin IC50 to doxorubicin IC50 in presence of test compound for reversal of drug resistance in human Eca-109/VCR cells at 5 uM incubated for 48 hrs by CCK-8 assay; type: functional
[19] = Reversal fold, ratio of mitoxantrone IC50 to mitoxantrone IC50 in presence of test compound for reversal of drug resistance in human Eca-109/VCR cells at 5 uM incubated for 48 hrs by CCK-8 assay; type: functional
Eca-109/VCR [20] = assay: Reversal of multi-drug resistance in human Eca-109/VCR cells assessed as decrease in cloning formation at 0.5 to 2 uM incubated for 8 days in presence of vincristine by crystal violet staining based analysis; type: functional, cell-based; conditions: dose 0.5-2 µM, time 8.0 day
[21] = Reversal fold, ratio of colchicine IC50 to colchicine IC50 in presence of test compound for reversal of drug resistance in human Eca-109/VCR cells at 5 uM incubated for 48 hrs by CCK-8 assay; type: functional
[22] = Apparent clearance in male Sprague-Dawley rat at 10 mg/kg, po measured after 24 hrs by UPLC-MS/MS analysis; type: ADME, organism-based; conditions: in vivo, read-out: CL(app) (converted)
[23] = Reversal fold, ratio of docetaxel IC50 to docetaxel IC50 in presence of test compound for reversal of drug resistance in human Eca-109/VCR cells at 5 uM incubated for 48 hrs by CCK-8 assay; type: functional
[24] = Reversal fold, ratio of lapatinib IC50 to lapatinib IC50 in presence of test compound for reversal of drug resistance in human Eca-109/VCR cells at 5 uM incubated for 48 hrs by CCK-8 assay; type: functional
Eca-109/VCR [25] = assay: Reversal of multi-drug resistance in human Eca-109/VCR cells assessed as decrease in cloning formation incubated for 8 days in presence of vincristine by crystal violet staining based analysis; type: functional, cell-based; conditions: dose 0.5-2 µM, time 8.0 day
Eca-109/VCR [26] = assay: Effect on p-gp expression in human Eca-109/VCR cells at 5 to 10 uM incubated for 24 hrs by Western blotting analysis; type: functional, cell-based; conditions: dose 5-10 µM
[27] = Reversal fold, ratio of vincristine IC50 to vincristine IC50 in presence of test compound for reversal of drug resistance in human Eca-109/VCR cells at 5 uM incubated for 48 hrs by CCK-8 assay; type: functional

SMILES | Cell viability (% of control) (Eca-109/VCR [1]) [%] | Activity (Eca-109/VCR [2]) [%] | Activity (Eca-109/VCR [3]) [%] | Activity (Eca-109/VCR [4]) [%] | Activity (Eca-109/VCR [5]) [%] | Activity (Eca-109/VCR [6]) [%] | Activity (Eca-109/VCR [7]) [%] | viability at 2.5 µM (Eca-109/VCR [8]) [%] | Activity (Eca-109/VCR [9]) [%] | Activity (Eca-109/VCR [10]) [%] | viability at 5 µM (Eca-109/VCR [11]) [%] | Activity (Eca-109/VCR [12]) [%] | viability at 5 µM (Eca-109/VCR [13]) [%] | Activity (Eca-109/VCR [14]) [%] | Activity (Eca-109/VCR [15]) | viability at 2.5 µM (Eca-109/VCR [17]) [%] | further results
COc1ccc(CCN(C)CCCC(C#N)(c2ccc(OC)c(OC)c2)C(C)C)cc1OC (stereo unspecified) [VERAPAMIL] | 98.9 | 0.85 | 0.34 | 0.2 | 0.72 | 0.55 | 0.17 | 96 | 1.19 | 1.12 | 75.4 | 5.95 | 96.2 | 0.13 | – | – | –
COc1cccc2c1C(=O)c1c(O)c3c(c(O)c1C2=O)C[C@@](O)(C(=O)CO)C[C@@H]3O[C@H]1C[C@H](N)[C@H](O)[C@H](C)O1 [DOXORUBICIN] | – | – | – | – | – | – | – | – | – | – | – | – | – | – | – | – | IC50 (ECa-109 cell line): 2.07 µM
CC[C@]1(O)C[C@H]2CN(CCc3c([nH]c4ccccc34)[C@@](C(=O)OC)(c3cc4c(cc3OC)N(C=O)[C@H]3[C@@](O)(C(=O)OC)[C@H](OC(C)=O)[C@]5(CC)C=CCN6CC[C@]43[C@@H]65)C2)C1 [VINCRISTINE] | – | – | – | – | – | – | – | – | – | – | – | – | – | – | inactive | – | IC50 (Eca-109/VCR [16]): 4.15 µM
COc1cc2c(cc1OC)CN(CCc1ccc(NC(=O)c3cc(OC)c(OC)cc3NC(=O)c3cnc4ccccc4c3)cc1)CC2 [TARIQUIDAR] | 84.8 | 7.6 | 0.57 | 0.22 | – | 0.64 | 0.47 | 63.2 | 1 | 3.18 | 63.4 | 7 | 95.6 | 0.21 | – | 96.1 | –
COc1cc2c(cc1OC)C(Cc1ccc(OS(=O)(=O)c3ccccc3[N+](=O)[O-])c(OC)c1)N(C)CC2 (stereo unspecified) | 99.1 | 5.47 | 0.7 | 0.29 | 1 | 0.53 | 0.63 | 75.4 | 2.19 | 1.61 | 94.5 | 9.21 | 97.1 | – | inactive | 96.9 | Ratio IC50 [18]: 29.4; Ratio IC50 [19]: 10; Activity (Eca-109/VCR [20]): Active; Compound Showed Superior Reversal Activity Compared To Oy-101; Ratio IC50 [21]: 98.2; CL/F [22]: 393 L/h/kg; Ratio IC50 [23]: 149.7; Ratio IC50 [24]: 1; Activity (Eca-109/VCR [25]): Dose-dependent-effect; Activity (Eca-109/VCR [26]): Active; Ratio IC50 [27]: 467.7

— ChEMBL document CHEMBL6182888, “Design, synthesis, and biological activity study of 6,7-dimethoxy-1,2,3,4-tetrahydroisoquinoline derivatives against multidrug resistance in Eca109/VCR cells” (Eur J Med Chem, 2025)
